Source: patent US9862693B2, “Compounds and methods of treating cancer” (The Regents of the University of California, priority 2012, dated 2018)
“Also recorded” adds a separate entry of the source. Structures can show the parent of a compound that is named as a salt.

Assays:
MCF7 = test: MTS cell number assay (CellTiter 96), ER+ breast cancer cells; format: cell-based; settings: Homo sapiens, 1 mM, 72 hours, MTS method, read-out: ER+ BC MCF7, cell numbers as percentage of vehicle treated controls
Method: FIG. 1. Metformin analogues inhibit growth/survival of ER+ MCF7 breast cancer cells. MCF7 cells were cultured in medium containing different concentrations of metformin and analogues (0.1, 1 and 5 mM). After 3 days, the percentage of surviving cells relative to controls, defined as 100% survival, was determined by the MTS assay. Data represents three independent experiments.
Compounds described herein (e.g. metformin derivatives and/or analogues) were tested in human MCF-7 breast cancer cells, a standard ERalpha-positive model of breast malignancy (FIG. 1), and in four different cell lines classified as TNBC, including MDA-MB-231, HCC1937, HCC38 and HCC1806 (FIGS. 2A-2D). […] Experiments were also performed in: 1) a non-small cell lung cancer cell line that is known to be resistant to standard chemotherapy (A549); and 2) a melanoma-like cell model (MDA-MB-435). To find if analogues have effects on normal cells compounds were tested in two different types of cells, human umbilical vein endothelial cells (HUVEC) and human mammary epithelial cells (HMEC). The effects of metformin (MET) were compared with compounds JD001-JD009.
(§1) Cells were incubated in the presence of vehicle, metformin or metformin analogues for 72 hours in their respective media. After treatment cell numbers were determined with the MTS method using the CellTiter 96 Aqueous Non-Radioactive Cell Proliferation Assay (Promega). Numbers express percentage of vehicle treated controls at 1 mM concentration metformin or metformin analogues (JD001-JD009). TNBC: Triple Negative Breast Cancer Cells, ER+BC: Estrogen receptor positive breast cancer.

HMEC = test: MTS cell number assay (CellTiter 96), normal cells; format: cell-based; settings: Homo sapiens, 1 mM, 72 hours, MTS method, read-out: Biodata Normal HMEC, cell numbers as percentage of vehicle treated controls
Method: (§2) FIGS. 4A-4B. Effects of metformin and metformin analogues on normal cells. HMEC (FIG. 4A) and HUVEC (FIG. 4B) cells were plated in special media. After 24 hours, cells were treated with increasing concentrations of metformin and analogues JD001-JD009 (0.1, 1 and 5 mM). After 3 days, MTS assay was performed. Survival is expressed as percentage of vehicle treated control. Data represents at least two experiments.
(§3) The effects of compounds described herein (including embodiments) (e.g. metformin analogues) were determined on two types of normal nonmalignant human cells, human umbilical vein endothelial cells (HUVEC) and human mammary epithelial cells (HMEC). There were no significant biologic effects noted on exposure to the metformin analogues.
as §1

HUVEC = test: MTS cell number assay (CellTiter 96), normal cells; format: cell-based; settings: Homo sapiens, 1 mM, 72 hours, MTS method, read-out: Biodata Normal HUVEC, cell numbers as percentage of vehicle treated controls
Method: as §2, §3, §1

A549 = test: MTS cell number assay (CellTiter 96), NSCLC cells; format: cell-based; settings: Homo sapiens, 1 mM, 72 hours, MTS method, read-out: Biodata extra A549, cell numbers as percentage of vehicle treated controls
Method: (§4) FIGS. 3A-3B. Metformin analogues inhibit survival of non-small cell lung cancer (NSCLC) (FIG. 3A) and melanoma cell lines (FIG. 3B). A549 (NSCLC) and MDA-MB-435 (melanoma) cells were cultured in medium containing 1% fetal bovine serum and increasing concentrations of metformin (MET) and analogues JD001-JD007 (0.1, 1 and 5 mM). After 3 days, MTS assay was performed. Survival is expressed as percentage of control defined at 100%.
as §1

HCC1937 = test: MTS cell number assay (CellTiter 96), TNBC cells; format: cell-based; settings: 1 mM, 72 hours, MTS method
Method: (§5) FIGS. 2A-2D. Metformin analogues inhibit growth/survival of triple negative breast cancer cells. MDA-MB-231 (FIG. 2A), HCC38 (FIG. 2B), HCC1937 (FIG. 2C) and HCC1806 (FIG. 2D) cells were cultured in medium containing 1% fetal bovine serum and increasing concentrations of metformin and analogues JD001-JD009 (0.1, 1 and 5 mM). After 3 days, MTS assay was performed. The percentage of surviving cells relative to controls, defined as 100% survival, was determined by the MTS assay.
as §1

HCC38 = test: MTS cell number assay (CellTiter 96), TNBC cells; format: cell-based; settings: 1 mM, 72 hours, MTS method
Method: as §5, §1

HCC1806 = test: MTS cell number assay (CellTiter 96), TNBC cells; format: cell-based; settings: 1 mM, 72 hours, MTS method
Method: as §5, §1

MDA-MB-231 = test: MTS cell number assay (CellTiter 96), TNBC cells; format: cell-based; settings: Homo sapiens, 1 mM, 72 hours, MTS method, read-out: Biodata TNBC MDA-MB-231, cell numbers as percentage of vehicle treated controls
Method: as §5, §1

MDA-MB-435 = test: MTS cell number assay (CellTiter 96), melanoma cells; format: cell-based; settings: 1 mM, 72 hours, MTS method
Method: as §4, §1

MCF-7 cells = test: Cell proliferation ELISA, BrdU colorimetric kit; format: cell-based, human; settings: 0.1 mM and 1 mM, BrdU incorporation, 1% FBS, P<0.01
Method: FIGS. 6A-6C. […] Proliferation was assessed using cell proliferation ELISA, BrdU colorimetric kit (Roche). Cells were counted using a hemocytometer and plated. After 24 hrs, cells were treated with metformin and analogs JD003 and JD004 at 0.1 mM and 1 mM doses using phenol-red free medium with 1% FBS. After 48 hr, BrDU labeling solution was added and incubated for 24 h. Proliferation was assessed using BrDU incorporation by ELISA during DNA synthesis in proliferating cells. Data shown as % control (mean±SE) (n=3 experiments).
We hypothesize that metformin analogs can be prepared with enhanced anticancer activity and minimal non-target toxicity. […] Human pancreatic cancer cells PANC-1, were grown in DMEM with 2 mM glutamine, 1 mM sodium pyruvate, 100 units/mL penicillin, 100 μg/mL streptomycin and 10% FBS at 37 C in a humidified atmosphere with 10% CO2. Then, effects of treatment with metformin or analog JD003 on cell proliferation in vitro were tested. […] In contrast, minimal antiproliferative effects are detected in nonmalignant human epithelial cells. […]
Cell proliferation screening assays were done using cell proliferation ELISA, BrdU colorimetric kit (Roche). Cells were counted using a hemocytometer and plated in 96-well plates. […] Cell proliferation were quantitated based on measures of BrDU incorporation (by ELISA) during DNA synthesis in proliferating cells. […] Results were expressed as mean±SE. […]

Compound | viability at 1000 µM (MCF7) [%] | viability at 1000 µM (HMEC) [%] | viability at 1000 µM (HUVEC) [%] | viability at 1000 µM (A549) [%] | Biodata TNBC HCC1937, cell numbers as percentage of vehicle treated controls (HCC1937) | Biodata TNBC HCC38, cell numbers as percentage of vehicle treated controls (HCC38) | Biodata TNBC HCC1806, cell numbers as percentage of vehicle treated controls (HCC1806) | viability at 1000 µM (MDA-MB-231) [%] | Biodata extra MDA-MB-435, cell numbers as percentage of vehicle treated controls (MDA-MB-435) | Blocking proliferation of MCF-7 cells compared with metformin (MCF-7 cells)
CON(C)C(=N)NC(=N)N [JD001, N-Methoxyl-N-methylbiguanide hydrochloride] | 82.3 | 101 | 84.4 | 62.6 | 68.9 percentage of vehicle treated controls | 102.5 percentage of vehicle treated controls | 80.1 percentage of vehicle treated controls | 92 | 102.1 percentage of vehicle treated controls | 
N=C(NC(=N)N1CCCCC1)N1CCCCC1 [JD002, N-(Imino(piperidin-1-yl)methyl)piperidine-1-carboximidamide hydrochloride] | 46.2 | 62.6 | 70 | 4.6 | 17.1 percentage of vehicle treated controls | 44.7 percentage of vehicle treated controls | 36.4 percentage of vehicle treated controls | 48.5 | 39.8 percentage of vehicle treated controls | 
CN1CCN(C(=N)NC(=N)N2CCN(C)CC2)CC1 [JD004, N-(Imino(4-methylpiperazin-1-yl)methyl)-4-methylpiperazine-1-carboximidamide hydro-chloride] | 84.4 | 113 | 89.1 | 74.3 | 64 percentage of vehicle treated controls |  |  | 89.2 | 59.6 percentage of vehicle treated controls | more effective in blocking proliferation of MCF-7 cells; also recorded: enhanced antiproliferative activity in breast cancer cells as compared to metformin
N=C(NC(=N)N1CCCC1)N1CCCCC1 [JD005, N-(Imino(pyrrolidin-1-yl)methyl)piperidine-1-carboximidamide hydrochloride] | 58.2 | 67.6 | 54.6 | 32.4 | 15.7 percentage of vehicle treated controls | 43.4 percentage of vehicle treated controls | 55.8 percentage of vehicle treated controls | 46.6 | 42.2 percentage of vehicle treated controls | 
N=C(NC(=N)N1CCCC1)N1CCCC1 [JD006, N-(Imino(pyrrolidin-1-yl)methyl)pyrrolidine-1-carboximidamide hydrochloride] | 59.7 | 96.6 | 113 | 59.7 |  |  |  |  |  | 
CN(C)C(=N)NC(=N)N1CCOCC1 [JD007, N—(N,N-Dimethylcarbamimidoyl)morpholine-4-carboximidamide hydrochloride] | 65.8 | 105 | 112 | 82.3 |  | 83.6 percentage of vehicle treated controls | 65.7 percentage of vehicle treated controls | 64.3 |  | 
CCCN(C)C(=N)NC(=N)N [JD008, N-Methyl-N-propylbiguanide hydrochloride] | 52.2 | 70.9 | 37.7 |  |  | 55.6 percentage of vehicle treated controls | 52.7 percentage of vehicle treated controls | 38.6 |  | 
CC1CCN(C(=N)NC(=N)N)CC1 [JD009, N-Carbamimidoyl-4-methylpiperidine-1-carboximidamide, hydrochloride] | 52.7 | 48.8 | 39.5 |  |  | 0 percentage of vehicle treated controls | 7.3 percentage of vehicle treated controls | 0.3 |  | 
